{"source": "DBAASP", "assay_in_all_cases": "≥ marks a high value that may be exact or a test limit, other limits are often not marked, values filed in µg/mL are converted to µM", "key": {"Pseudomonas fluorescens": {"test_system": "Pseudomonas fluorescens"}, "Vibrio parahaemolyticus": {"test_system": "Vibrio parahaemolyticus"}, "[1]": {"test_system": "Corynebacterium glutamicum"}, "Escherichia coli": {"test_system": "Escherichia coli"}, "Cryptococcus neoformans": {"test_system": "Cryptococcus neoformans"}, "Aeromonas hydrophila": {"test_system": "Aeromonas hydrophila"}, "Shigella flexneri": {"test_system": "Shigella flexneri"}, "Vibrio alginolyticus": {"test_system": "Vibrio alginolyticus"}, "Bacillus cereus": {"test_system": "Bacillus cereus"}, "Staphylococcus aureus": {"test_system": "Staphylococcus aureus"}, "Pseudomonas aeruginosa": {"test_system": "Pseudomonas aeruginosa"}, "[2]": {"test_system": "Staphylococcus epidermidis"}, "Candida albicans": {"test_system": "Candida albicans"}, "Bacillus subtilis": {"test_system": "Bacillus subtilis"}, "[3]": {"test_system": "Pseudomonas aeruginosa CICC 10419"}, "[4]": {"test_system": "Staphylococcus aureus ATCC 29213"}, "[5]": {"test_system": "Pseudomonas aeruginosa CICC 11431"}, "[6]": {"test_system": "Pseudomonas aeruginosa CICC 11411"}, "[7]": {"test_system": "Pseudomonas aeruginosa CICC 21630"}, "[8]": {"test_system": "Escherichia coli ATCC 25922"}, "[9]": {"test_system": "Pseudomonas aeruginosa 21328"}, "[10]": {"test_system": "Pseudomonas aeruginosa ATCC 27853"}, "[11]": {"test_system": "Pseudomonas aeruginosa CICC 21625"}, "[12]": {"test_system": "Pseudomonas aeruginosa CICC 11421"}, "[13]": {"test_system": "Pseudomonas aeruginosa 25349"}}}
{"compound": "CC(C)C[C@H](NC(=O)[C@H](CO)NC(=O)[C@H](CC(C)C)NC(=O)[C@H](Cc1cnc[nH]1)NC(=O)[C@H](CO)NC(=O)[C@@H](N)CCC(N)=O)C(=O)N[C@H]1CSSC[C@@H](C(=O)N[C@@H](CCCCN)C(=O)N[C@@H](Cc2ccccc2)C(=O)O)NC(=O)[C@@H]2CSSC[C@@H]3NC(=O)[C@H](CSSC[C@H](NC(=O)[C@H](CC(N)=O)NC3=O)C(=O)N[C@H]3CSSC[C@H](NC(=O)CNC(=O)[C@H](CCCCN)NC(=O)[C@H](Cc4ccc(O)cc4)NC(=O)[C@H](CCCN=C(N)N)NC(=O)[C@H](CC(N)=O)NC3=O)C(=O)NCC(=O)N[C@@H](Cc3ccccc3)C(=O)N2)NC(=O)[C@H](Cc2c[nH]c3ccccc23)NC(=O)[C@H](CCCN=C(N)N)NC1=O", "note": "[QSHLSLCRWCCNCCNRYKGCGFCCKF]", "values": [{"measurement": "MIC", "setting": "Pseudomonas fluorescens", "value": 17.7, "unit": "µM"}, {"measurement": "MIC", "setting": "Vibrio parahaemolyticus", "value": "≥ 50", "unit": "µM"}, {"measurement": "MIC", "setting": "[1]", "value": 8.84, "unit": "µM"}, {"measurement": "MIC", "setting": "Escherichia coli", "value": "> 50", "unit": "µM"}, {"measurement": "MIC", "setting": "Cryptococcus neoformans", "value": "≥ 50", "unit": "µM"}, {"measurement": "MIC", "setting": "Aeromonas hydrophila", "value": "≥ 50", "unit": "µM"}, {"measurement": "MIC", "setting": "Shigella flexneri", "value": "≥ 50", "unit": "µM"}, {"measurement": "MIC", "setting": "Vibrio alginolyticus", "value": "≥ 50", "unit": "µM"}, {"measurement": "MIC", "setting": "Bacillus cereus", "value": "≥ 50", "unit": "µM"}, {"measurement": "MIC", "setting": "Staphylococcus aureus", "value": "> 50", "unit": "µM"}, {"measurement": "MIC", "setting": "Pseudomonas aeruginosa", "value": 35.4, "unit": "µM"}, {"measurement": "MIC", "setting": "[2]", "value": "≥ 50", "unit": "µM"}, {"measurement": "MIC", "setting": "Candida albicans", "value": "> 50", "unit": "µM"}, {"measurement": "MIC", "setting": "Bacillus subtilis", "value": 8.84, "unit": "µM"}]}
{"compound": "CC(C)C[C@H](NC(=O)[C@H](CCCN=C(N)N)NC(=O)[C@H](CCCN=C(N)N)NC(=O)[C@H](CC(C)C)NC(=O)[C@H](Cc1c[nH]c2ccccc12)NC(=O)[C@H](CCCN=C(N)N)NC(=O)[C@H](CCCN=C(N)N)NC(=O)[C@H](CCCN=C(N)N)NC(=O)[C@H](CC(C)C)NC(=O)[C@H](CCCN=C(N)N)NC(=O)[C@H](CCCN=C(N)N)NC(=O)[C@@H](N)CC(C)C)C(=O)N[C@@H](CCCN=C(N)N)C(=O)N[C@@H](CCCN=C(N)N)C(=O)N[C@@H](CCCN=C(N)N)C(N)=O", "note": "[LRRLRRRWLRRLRRR]", "values": [{"measurement": "MIC", "setting": "[3]", "value": "≥ 115", "unit": "µM"}, {"measurement": "MIC", "setting": "[4]", "value": 28.8, "unit": "µM"}, {"measurement": "MIC", "setting": "[5]", "value": 28.8, "unit": "µM"}, {"measurement": "MIC", "setting": "[6]", "value": "≥ 57.7", "unit": "µM"}, {"measurement": "MIC", "setting": "[7]", "value": 14.4, "unit": "µM"}, {"measurement": "MIC", "setting": "[8]", "value": "> 57.7", "unit": "µM"}, {"measurement": "MIC", "setting": "[9]", "value": "≥ 57.7", "unit": "µM"}, {"measurement": "MIC", "setting": "[10]", "value": 14.4, "unit": "µM"}, {"measurement": "MIC", "setting": "[11]", "value": 28.8, "unit": "µM"}, {"measurement": "MIC", "setting": "[12]", "value": "≥ 115", "unit": "µM"}, {"measurement": "MIC", "setting": "[13]", "value": 20.4, "unit": "µM"}]}
